Experimental findings from patent US10822310B2, “Prevention and treatment of human metabolic syndrome including type 2 diabetes, steatohepititis and related conditions using non-absorbable, orally administered compounds” (priority 2017, dated 2020) are described below.

Series [1] is described as follows: rate studies of reaction with methyl glyoxal by reverse phase HPLC. The following applies: pH 7, aqueous solution.
The subject of the next series is GLP-1. Briefly: in vitro protection of GLP-1 from methyl glyoxal (UPLC/TOF-MS). The conditions noted are these: 0.62 mM peptide, 30 mM phosphate buffer pH 7.4, 20 equiv methyl glyoxal, 37 degrees C, 3 hours, 5 equiv compound relative to methyl glyoxal. The class given is biochemical. As to the method: In order to test further the hypothesis that intestinal peptide hormones might be compromised by the chemical action of gut microbial products, in vitro studies were carried out with GLP-1, PYY and Oxyntomodulin. For these studies methyl glyoxal was selected as electrophile because it is a well-known microbial metabolite and also relevant to metabolic syndrome, T2D and diabetic neuropathy; see Diabetes, 63, 50-52 (2014); Biochemical Soc. Transact, 42, 450-456 (2014); Clinical Sci., 128, 839-861 (2015); Hypertension, 56, 471-476 (2010). Methyl glyoxal has also been implicated in neurodegenerative diseases—see Neuroscience, 9, 1-12 (2015). […] Methyl glyoxal can be detected in blood in amounts that correlate with the severity of T2D. […]
The results of the in vitro studies that have been carried out using methyl glyoxal and each of three intestinal peptide hormones, GLP-1, PYY (a satiety-sensing hormone), and Oxyntomodulin, can be summarized as follows: • 1. […] The mixture was cooled to ambient temperature and analyzed by ultra-high pressure liquid chromatography (Agilent 1290 UPLC) coupled with detection by triple time of flight mass spectrometry (Scitex 5600 TRIPTOF mass spectrometer), each aliquot being diluted with 20% aqueous acetic acid. • 2. […]

Series [2] is described as follows: analysis of blood of treated mice by HPLC/mass spectrometry (absorption from GI tract). The class given is in vivo. The following applies: treated FATZO mice. Here is the method: (§1) In order to test the hypothesis that a non-absorbable compound which is confined to the GI tract can favorably affect metabolic syndrome T2D and related conditions in vivo studies were carried out with I/II using a polygenic mutant strain of mice that develop metabolic syndrome, T2D and obesity when fed a high fat (“Western type”) diet. This polygenic mouse model (“FATZO” mouse), developed by Eli Lilly Co. and PreClinOmics (now Crown Bio, Indianapolis, Ind.), has been described in detail (PLoS ONE, 12, 1-15 (2017). FATZO mice on a high fat diet generally gain weight, gradually become obese, and develop hyperglycemia, hypertension, glucose intolerance, insulin insensitivity and severe T2D. A group of FATZO mice were placed on a high fat diet (HFD) for an initial three-week ‘base’ period after which they were divided into two groups: Group 1 (the treated group) was maintained on a HFD along with 5 mg/day of I/II, administered in water by gavage. […] Blood glucose levels of the treated group were stabile and after six weeks about 50% below those of the untreated group. […] A third group of FATZO mice was maintained on a standard diet of ordinary mouse chow and also treated with 5 mg/day of I/II.

Another series concerns FATZO mice. Briefly: in vivo study in polygenic FATZO mouse model of metabolic syndrome, T2D and obesity. Here is the method:
as §1

The mark [3] stands for this setting: standard diet of ordinary mouse chow, 5 mg/day, six weeks.

With `CN(C)C(=N)N=C(N)N` [metformin], the “reactivity (rate) toward methyl glyoxal relative to N-tosyl-arginine methyl ester” value in series [1] was “less than one-tenth the rate”.
With `NCc1nc2cc(S(=O)(=O)O)ccc2[nH]1` [I/II], the GLP-1 remained unchanged entry in the series on GLP-1 is given as “greater than 95%”. In series [2], the “absorption from the GI tract after oral administration” value was “no detectable absorption”. Further, the “test compound in blood” value in series [2] (oral administration, HPLC/mass spectrometry) is given as under 0.01 mg. per mouse. Besides, the “fasting blood glucose level below that of untreated group” value in the series with FATZO mice (high fat diet, 5 mg/day by gavage in water, after six weeks) is listed as “about 50%”. Moreover, in the series on FATZO mice (high fat diet, 5 mg/day by gavage, six weeks (untreated gained 2% per week)), the body weight gain result was “no weight gain”. Moreover, in the series on FATZO mice (setting [3]), the behavior result is “completely normal behavior”, the body weight gain result is given as “no weight gain” and the “increase in fasting blood glucose levels” value is on record as “no increase in fasting blood glucose levels”.
As usually defined, the pKa is the pH at which an ionisable group is half protonated. A lower pKa goes with a stronger acid or weaker base. Regarding `NCc1nc2cc(S(=O)(=O)O)ccc2[nH]1` [I, 2-(Aminiomethyl)-1H-benzol[d]imidazole-5-sulfonate], in the series “physchem”, the pKa is about 7.7.
